Results published in ChEMBL document CHEMBL1201862, “PubChem BioAssay data set” (2004).
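Grown in 96-well plates, cells were treated for 48 hours with each compound at five concentrations. Insufficient inhibition: endpoint recorded as highest concentration tested. Abbreviation: GI50, concentration required for 50% inhibition of growth.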 Activity calls are given as the source filed them. No stated cut-off is given here; in the data, active = GI50 up to about 1.1 µM and inactive = higher.

Legend:
Assay in all cases: NCI tumour cell line growth inhibition, 48 h
A498 = test system: A498
A549 = test system: A549
ACHN = test system: ACHN
CCRF-CEM = test system: CCRF-CEM
DMS-273 = test system: DMS-273
EKVX = test system: EKVX
HL-60 = test system: HL-60
HOP-62 = test system: HOP-62
HOP-92 = test system: HOP-92
HT-29 = test system: HT-29
IGROV-1 = test system: IGROV-1
KM12 = test system: KM12
M14 = test system: M14
M19-MEL = test system: M19-MEL
MOLT-4 = test system: MOLT-4
NCI-H23 = test system: NCI-H23
NCI-H460 = test system: NCI-H460
NCI-H522 = test system: NCI-H522
OVCAR-5 = test system: OVCAR-5
OVCAR-8 = test system: OVCAR-8
RXF 393 = test system: RXF 393
SF-268 = test system: SF-268
SF-295 = test system: SF-295
SK-MEL-28 = test system: SK-MEL-28
SK-OV-3 = test system: SK-OV-3
SNB-19 = test system: SNB-19
SNB-78 = test system: SNB-78
SR = test system: SR
TK-10 = test system: TK-10
U-251 = test system: U-251
UACC-257 = test system: UACC-257
UACC-62 = test system: UACC-62
UO-31 = test system: UO-31
786-0 = test system: 786-0
BT-549 = test system: BT-549
CAKI-1 = test system: CAKI-1
COLO 205 = test system: COLO 205
DU-145 = test system: DU-145
HCC 2998 = test system: HCC 2998
HCT-116 = test system: HCT-116
HCT-15 = test system: HCT-15
Hs-578T = test system: Hs-578T
K562 = test system: K562
LOX IMVI = test system: LOX IMVI
MCF7 = test system: MCF7
MDA-MB-231 = test system: MDA-MB-231
MDA-MB-435 = test system: MDA-MB-435
MDA-N = test system: MDA-N
Malme-3M = test system: Malme-3M
NCI-H226 = test system: NCI-H226
NCI/ADR-RES = test system: NCI/ADR-RES
OVCAR-3 = test system: OVCAR-3
OVCAR-4 = test system: OVCAR-4
PC-3 = test system: PC-3
RPMI-8226 = test system: RPMI-8226
SF-539 = test system: SF-539
SK-MEL-2 = test system: SK-MEL-2
SK-MEL-5 = test system: SK-MEL-5
SN12C = test system: SN12C
SNB-75 = test system: SNB-75
SW-620 = test system: SW-620
T47D = test system: T47D

CC1(C(=O)Nc2ccc3ccccc3c2)CC2(C)CC(C)(C1)C(O)NC2=O (stereo not given) was tested, and the GI50 (A498) was > 100 µM (inactive), the GI50 (A549) was > 100 µM (inactive) and the GI50 (ACHN) was > 100 µM (inactive). For the same molecule, the GI50 (CCRF-CEM) was > 100 µM (inactive), the GI50 (DMS-273) was > 100 µM (inactive) and the GI50 (EKVX) was > 100 µM (inactive). The GI50 (HL-60) was > 100 µM (inactive), the GI50 (HOP-62) was > 100 µM (inactive) and the GI50 (HOP-92) was > 100 µM (inactive). The GI50 (HT-29) was > 100 µM (inactive), the GI50 (IGROV-1) was > 100 µM (inactive) and the GI50 (KM12) was > 100 µM (inactive). The GI50 (M14) was > 100 µM (inactive), the GI50 (M19-MEL) was > 100 µM (inactive) and the GI50 (MOLT-4) was > 100 µM (inactive). For the same molecule, the GI50 (NCI-H23) was > 100 µM (inactive), the GI50 (NCI-H460) was > 100 µM (inactive) and the GI50 (NCI-H522) was > 100 µM (inactive). For the same molecule, the GI50 (OVCAR-5) was > 100 µM (inactive), the GI50 (OVCAR-8) was 86.9 µM (inactive) and the GI50 (RXF 393) was > 100 µM (inactive). For the same molecule, the GI50 (SF-268) was > 100 µM (inactive), the GI50 (SF-295) was > 100 µM (inactive) and the GI50 (SK-MEL-28) was > 100 µM (inactive). The GI50 (SK-OV-3) was > 100 µM (inactive), the GI50 (SNB-19) was > 100 µM (inactive) and the GI50 (SNB-78) was > 100 µM (inactive). For the same molecule, the GI50 (SR) was > 100 µM (inactive), the GI50 (TK-10) was > 100 µM (inactive) and the GI50 (U-251) was > 100 µM (inactive). For the same molecule, the GI50 (UACC-257) was 81.5 µM (inactive), the GI50 (UACC-62) was > 100 µM (inactive) and the GI50 (UO-31) was > 100 µM (inactive).
In the case of NC(=O)c1ccc(N)nc1 [6-AMINONICOTINAMIDE], the GI50 (786-0) is reported as 3.54 µM (inactive), the GI50 (A498) is reported as 14.9 µM (inactive) and the GI50 (A549) is reported as 54.5 µM (inactive). The GI50 (ACHN) was 54.3 µM (inactive), the GI50 (BT-549) was 14.1 µM (inactive) and the GI50 (CAKI-1) was 17.6 µM (inactive). For the same molecule, the GI50 (CCRF-CEM) was 12.3 µM (inactive), the GI50 (COLO 205) was 14.2 µM (inactive) and the GI50 (DU-145) was 2.3 µM (inactive). The GI50 (EKVX) was 21.7 µM (inactive), the GI50 (HCC 2998) was 31.5 µM (inactive) and the GI50 (HCT-116) was > 187 µM (inactive). For the same molecule, the GI50 (HCT-15) was 17.5 µM, the GI50 (HL-60) was 53.3 µM (inactive) and the GI50 (HOP-62) was 12 µM (inactive). The GI50 (HOP-92) was 213 µM (inactive), the GI50 (HT-29) was 3.93 µM (inactive) and the GI50 (Hs-578T) was 6.17 µM (inactive). The GI50 (IGROV-1) was 108 µM (inactive), the GI50 (K562) was 16.7 µM (inactive) and the GI50 (KM12) was 48.1 µM (inactive). The GI50 (LOX IMVI) was 3.35 µM (inactive), the GI50 (M14) was 6.24 µM (inactive) and the GI50 (MCF7) was 0.389 µM (active). For the same molecule, the GI50 (MDA-MB-231) was 39.4 µM (inactive), the GI50 (MDA-MB-435) was 4.66 µM (inactive) and the GI50 (MDA-N) was 14.3 µM (inactive). The GI50 (MOLT-4) was 38.6 µM (inactive), the GI50 (Malme-3M) was 33.2 µM (inactive) and the GI50 (NCI-H226) was 35.7 µM (inactive). For the same molecule, the GI50 (NCI-H23) was 9.98 µM (inactive), the GI50 (NCI-H460) was 5.16 µM (inactive) and the GI50 (NCI-H522) was 99.8 µM (inactive). For the same molecule, the GI50 (NCI/ADR-RES) was > 245 µM (inactive), the GI50 (OVCAR-3) was 67.8 µM (inactive) and the GI50 (OVCAR-4) was 7.01 µM (inactive). For the same molecule, the GI50 (OVCAR-5) was > 322 µM (inactive), the GI50 (OVCAR-8) was 17.6 µM (inactive) and the GI50 (PC-3) was 29.7 µM (inactive). For the same molecule, the GI50 (RPMI-8226) was 9.75 µM (inactive), the GI50 (RXF 393) was 0.138 µM (active) and the GI50 (SF-268) was 19.1 µM (inactive). For the same molecule, the GI50 (SF-295) was 5.07 µM (inactive), the GI50 (SF-539) was 8.43 µM (inactive) and the GI50 (SK-MEL-28) was 3.37 µM (inactive). The GI50 (SK-MEL-2) was 124 µM (inactive), the GI50 (SK-MEL-5) was 0.759 µM (active) and the GI50 (SK-OV-3) was > 400 µM (inactive). The GI50 (SN12C) was 15.9 µM (inactive), the GI50 (SNB-19) was 14.7 µM (inactive) and the GI50 (SNB-75) was 15.6 µM (inactive). For the same molecule, the GI50 (SR) was 14.3 µM (inactive), the GI50 (SW-620) was 82 µM (inactive) and the GI50 (T47D) was > 255 µM (inactive). For the same molecule, the GI50 (TK-10) was > 400 µM (inactive), the GI50 (U-251) was 1.85 µM (inactive) and the GI50 (UACC-257) was 0.986 µM (active). The GI50 (UACC-62) was 16.1 µM (inactive) and the GI50 (UO-31) was 29.4 µM (inactive).
CCOC(=O)C1=NNC(C(=O)c2ccccc2)C1c1ccccc1 (stereo not given) was tested, and the GI50 (786-0) was 2.11 µM (inactive), the GI50 (A498) was 25.1 µM (inactive) and the GI50 (A549) was 19.1 µM (inactive). The GI50 (ACHN) was 1.85 µM (inactive), the GI50 (BT-549) was 2.08 µM (inactive) and the GI50 (CAKI-1) was 1.83 µM (inactive). The GI50 (CCRF-CEM) was 1.64 µM (inactive), the GI50 (COLO 205) was 2.05 µM (inactive) and the GI50 (DU-145) was 13.2 µM (inactive). The GI50 (EKVX) was 8.95 µM (inactive), the GI50 (HCC 2998) was 1.96 µM (inactive) and the GI50 (HCT-116) was 2.52 µM (inactive). The GI50 (HCT-15) was 2.15 µM, the GI50 (HL-60) was 0.644 µM (active) and the GI50 (HOP-62) was 12.2 µM (inactive). The GI50 (HOP-92) was 2.07 µM (inactive), the GI50 (HT-29) was 2.28 µM (inactive) and the GI50 (Hs-578T) was 4.12 µM (inactive). The GI50 (IGROV-1) was 4.6 µM (inactive), the GI50 (K562) was 1.47 µM (inactive) and the GI50 (KM12) was 6.87 µM (inactive). The GI50 (LOX IMVI) was 2.32 µM (inactive), the GI50 (M14) was 1.9 µM (inactive) and the GI50 (MCF7) was 1.91 µM (inactive). For the same molecule, the GI50 (MDA-MB-231) was 3.94 µM (inactive), the GI50 (MDA-MB-435) was 1.91 µM (inactive) and the GI50 (MDA-N) was 1.85 µM (inactive). The GI50 (MOLT-4) was 3.54 µM (inactive), the GI50 (Malme-3M) was 2.19 µM (inactive) and the GI50 (NCI-H226) was 18.1 µM (inactive). For the same molecule, the GI50 (NCI-H23) was 2.42 µM (inactive), the GI50 (NCI-H522) was 1.15 µM (inactive) and the GI50 (NCI/ADR-RES) was 4.35 µM (inactive). The GI50 (OVCAR-3) was 3.42 µM (inactive), the GI50 (OVCAR-4) was 7.4 µM (inactive) and the GI50 (OVCAR-5) was 6.47 µM (inactive). For the same molecule, the GI50 (OVCAR-8) was 5.51 µM (inactive), the GI50 (PC-3) was 10.4 µM (inactive) and the GI50 (RPMI-8226) was 3.85 µM (inactive). The GI50 (RXF 393) was 1.7 µM (inactive), the GI50 (SF-268) was 5 µM (inactive) and the GI50 (SF-295) was 16.9 µM (inactive). For the same molecule, the GI50 (SF-539) was 2.17 µM (inactive), the GI50 (SK-MEL-28) was 1.91 µM (inactive) and the GI50 (SK-MEL-2) was 16.2 µM (inactive). For the same molecule, the GI50 (SK-MEL-5) was 1.8 µM (inactive), the GI50 (SK-OV-3) was 18.8 µM (inactive) and the GI50 (SN12C) was 2.08 µM (inactive). For the same molecule, the GI50 (SNB-19) was 14.4 µM (inactive), the GI50 (SNB-75) was 5.7 µM (inactive) and the GI50 (SR) was 1.81 µM (inactive). For the same molecule, the GI50 (SW-620) was 1.75 µM (inactive), the GI50 (T47D) was 4.24 µM (inactive) and the GI50 (TK-10) was 2.25 µM (inactive). For the same molecule, the GI50 (U-251) was 3.39 µM (inactive), the GI50 (UACC-257) was 2.61 µM (inactive) and the GI50 (UACC-62) was 3.18 µM (inactive). For the same molecule, the GI50 (UO-31) was 2.01 µM (inactive).
